In US20260157967A1, “METHOD FOR PREPARING MEDICINES, HAVING REDUCED PRODUCTION TIME AND IMPROVED STABILITY” (DR.INB CO., priority 2021, published 2026):

System: cancer cells (PANC-1)
Test: CCK8 assay of the efficiency of killing cancer cells, with or without laser irradiation (FIG. 4)
Type: cell-based
Conditions: PANC-1, FIG. 4a, docetaxel treatment at various concentrations
Experimental: 1 g of polyvinylpyrrolidone (PVP, Sigma-Aldrich) was dissolved in 20 g of ultrapure water and stirred in a mixing chamber at 1500 RPM for 30 minutes to obtain an aqueous PVP solution. Subsequently, 131.7 mg of potassium hexacyanoferrate (III) trihydrate (K3Fe(CN)6·3H2O, Sigma-Aldrich) was dissolved in 20 g of ultrapure water and mixed with the aqueous PVP solution. Then, 400 μl of 1 M HCl (Sigma-Aldrich) was added to the mixing chamber and vortexed at 60 J/s. After movement through an injection pipe, the solution thus prepared was subjected to a step of allowing gas to flow at a high speed on the inner boundary of a reaction chamber and in a liquid cutting tube at an applied voltage of 30 kV, a distance of 25 cm between the reaction chamber and the end of the injection pipe, and a temperature of 140° C. As indicated by the green arrows in FIG. 1, the gas is moved toward the upper portion of the reaction chamber through a structure in which the boundary of the reaction chamber and the liquid cutting tube are at 0.29 rad and the gap of the boundary is 900 nm. As the gas passed, the prepared solution was cut into small pieces. The cut liquid received heat in the reaction chamber and the temperature thereof rose quickly compared to bulk liquid having the same total volume (40 ml) due to heat transfer within the liquid (FIG. 3). […]

## CC(=O)O[C@@]12CO[C@@H]1C[C@H](O)[C@@]1(C)C(=O)[C@H](O)C3=C(C)[C@@H](OC(=O)[C@H](O)[C@@H](NC(=O)OC(C)(C)C)c4ccccc4)C[C@@](O)([C@@H](OC(=O)c4ccccc4)[C@H]21)C3(C)C [docetaxel]
  efficiency of killing cancer cells: increased the efficiency of killing cancer cells with an increase in the treatment concentration
